Data taken from patent publication US9907637B2, “Modular bioresorbable or biomedical, biologically active supramolecular materials” (SupraPolix B.V., priority 2005, dated 2018).

Experiments:
[1] = Extraction of peptide out of polymer films with water, LC-MS; format: physicochemical; conditions: for peptide dissolved: 80 minutes at 37° C. in a total volume of 5 mL water, 4 mole % peptide; for extraction: water 37° C., 4 mole % peptide in film of polymer of example 14
Protocol: The extraction of the peptide of example 18 and the peptide GRGDS without a UPy-unit out of films of example 29a was investigated with LC-MS measurements. The amount of peptide that was mixed in the polymeric materials is in both cases 4 mole %. Calibration was performed by quantification of one fragment of the parent ion (MS^2) of the peptides using different concentrations of the peptides. The surface area of the corresponding peak (in the total ion count) was calculated with the ICIS algorithm. The extraction experiments were performed as follows: the film was incubated at 37° C. for 5 minutes in 1 mL water, then the water was removed and the concentration of peptide was measured with the described LC-MS procedure (time-point: 5 minutes); another 1 mL water was added to the film which was subsequently incubated again for 5 minutes at 37° C. followed by removal of the water which was analysed with the LC-MS method (time-point: 10 minutes); another 1 mL water was added to the film and the sample was incubated for 10 minutes at 37° C. followed by removal of the water which was analysed with the LC-MS method (time-point: 20 minutes); incubation at 37° C. in another 1 mL water for 20 minutes, followed by removal of the water which was analysed with the LC-MS method (time-point: 40 minutes); and incubation at 37° C. in another 1 mL water for 40 minutes, followed by removal of the water which was analysed with the LC-MS method (time-point: 80 minutes).

[2] = as above; format: physicochemical; conditions: 2 hours at 37° C. in 1 mL water, 4 mole % peptide

| peptide dissolved [1] | extraction ([1]; time 5 min) | extraction ([1]; time 10 min) | extraction ([1]; time 20 min) | dissolution of peptide from film ([1]; within 5 minutes, water at 37° C.) | peptide dissolved [2] | Substance |
| --- | --- | --- | --- | --- | --- | --- |
| 105% | 91% | 97% | 100% | almost all of the peptide is dissolved | 101% | GRGDS |
| 76% | 39% | 60% | 76% | – | 64% | UPy-GRGDS [Example 18] |
